The record followed here is patent US10947271B2, “Antibacterial agents” (THE UNIVERSITY OF QUEENSLAND, priority 2014, dated 2021).

The nature of series [1]: Stability of compounds in human plasma. To be noted: 50% human plasma/PBS pH 7.4, 37° C. As to the method: Briefly test compounds (20 μM) were prepared from a 1 mM stock solution. The human plasma sample (200 μl) was diluted with 160 μl phosphate-buffer saline (PBS, pH 7.4) to a concentration of 50% v/v before use. Solutions were then vortexed and placed on a 37° C. shaker and shaken gently for 10 minutes. 40 μl of the test compounds were then added to the plasma sample and vortexed. For the reaction time t=0 hour, 50 μl of sample was immediately transferred into an eppendorf tube and quenched with 150 μl cold acetonitrile. The remaining plasma solution was incubated and shaken at 37° C. Other samples were collected at time points of 0, 1, 3, 6 and 24 hours whereby 50 μl aliquots were removed and quenched with 150 μl cold acetonitrile. All samples were placed in a 4° C. fridge for 10 minutes then centrifuged at 3000 rpm for 15 minutes. The supernatant (100 μl) was transferred to a glass vial insert for LCMS analysis. The percentage of test compounds remaining at the individual time points relative to sample at time point 0 hour were reported.
Plasma: Human Plasma (Pooled Normal Human Plasma Heparin Anticoagulant 50 mL (IPLA-2 N-04 lot IR09-1001, originally from Innovative Research and imported by BioCore).
All compounds in 100% water (40 μL in 400 μL assay volume equivalent […])
Compounds: 40 μL of the vancomycin derivative solution was added to 160 μL of PBS (pH 7.4) respectively in an Eppendorf tube. 600 μL of cold acetonitrile was added, the tube vortexed and transferred to a glass vial for LC-MS analysis.
Eucatropine: 200 μL of plasma and 190 μL of buffer were vortexed, shaken at 37° C. for 10 minutes. 10 μL of eucatropine solution was then added and the tube vortexed. A 50 μL aliquot was immediately transferred to an Eppendorf tube, 150 μL of cold acetonitrile added and the tube transferred to a 4° C. fridge for 10 minutes. The remaining plasma solution was then transferred to the incubator and shaken at 37° C. The tube was retrieved from the fridge, centrifuged at 3000 rpm for 15 min and 100 μL of supernatant transferred to a glass vial insert for LC-MS analysis. 50 μL aliquots were processed as above at 1, […], 3, 6 and 24 hours and 5 μL was injected into triple quad MS system for analysis. Vancomycin derivatives: 200 μL of plasma and 160 μL of buffer were vortexed and shaken at 37° C. for 10 minutes. 40 μL of compound was then added and the sample was processed as above.

The subject of series [2] is Staphylococcus aureus MRSA ATCC 43300. The experiment in a line: MIC assay, S. aureus MRSA ATCC 43300. The series is classed as cell-based. To be noted: 24 h incubation, visual reading. An outline of the steps:
(§1)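 Mid-log cultures in MHB were added at 5×10e5 CFU/mL to compounds diluted twofold from 8 to 0.003 μg/ml. Visual inspection after 24 h incubation at 37° C. gave the MIC, the lowest concentration without visible growth.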

The subject of series [3] is Streptococcus pneumoniae MDR ATCC 700677. The experiment in a line: MIC assay, S. pneumoniae MDR ATCC 700677. The series is classed as cell-based. Particulars: 24 h incubation, visual reading. Put shortly:
as §1

In series [4] the test system is Enterococcus faecium MDR Van A ATCC 51559. The experiment in a line: MIC assay, E. faecium MDR Van A ATCC 51559. Type of series: cell-based. To be noted: 24 h incubation, visual reading. Put shortly: as §1
For series [5], the system named is MRSA (Strain ATCC 43300). The experiment in a line: Murine thigh infection model (MRSA). Type of series: in vivo, Staphylococcus aureus. Particulars: neutropenic CD1 mice, single subcutaneous dose 10 mg/kg. As to the method: Summary: Adult (8 week old) female CD1 mice were made neutropenic by two injections of cyclophosphamide 4 days and 1 day prior to infection. An inoculum of 10^5 cfu MRSA (Strain ATCC 43300) was injected intramuscularly into both left and right thighs of all mice. […] After an additional two hours, a 50 μL sample of blood was obtained from the tail bleed to analyse for presence of antibiotic compound. […] Thighs were then removed, weighed and homogenised in a fixed volume of saline. The homogenate solution was filtered, diluted and seeded onto agar plates, which were incubated overnight at 37° C. Colony counts were used to establish the cfu in the thigh homogenates, the cfu/thigh, and the cfu/g of thigh.
Compound preparation: Cyclophosphamide monohydrate (Sigma) was dissolved in sterile saline to a concentration of 30 mg/mL. Likewise, vancomycin (Sigma) and MCC compounds were also dissolved in sterile saline to a final concentration of 60 mg/mL and 18.5 mg/mL respectively. All compounds were prepared in low binding Eppendorf tubes and kept at −20° C. until used.
In vivo experimental assay: Eight week old female outbred CD1 mice (UQBR-AIBN) were rendered neutropenic by injecting two doses of cyclophosphamide intraperitoneally 4 days (150 mg/kg) and 1 day (100 mg/kg) prior to experimental infection. The infection model using MRSA was established by intramuscular injection of 50 μL of early-log-phase bacterial MRSA suspension (around 2×10^6 cfu/mL) in saline into both thigh muscles. […] Untreated animals received equivalent volume of saline (Baxter). The mice were monitored for signs of normal behaviour (i.e. grooming, eating, drinking, sleeping, and alertness) during and following dosing. Two hours after saline/antibiotic treatment, 0.05 mL of blood was collected by tail incision. 24 hours after MRSA infection, mice were euthanized and blood collected from the heart by cardiac puncture (saline group) or by tail incision (Vancomycin and MCC compound treated groups) as outlined in FIG. 1. For each mouse, both thighs were collected aseptically by cutting the leg at the hip and knee, placed in 10 mL of cold sterile saline and the individual weight of each thigh recorded.
Preparation of injectable MRSA solution: An MRSA subculture bacterial isolate (ATCC43300) was taken from the storage at −80° C. and freshly seeded on agar plates for overnight (O/N) growth. From the O/N culture preparation, a single colony was diluted into 10-12 mL of Mueller Hinton broth (MHB) and incubated O/N at 37° C. A log-phase subculture was obtained by adding 100 μL of O/N subculture in 10 mL MHB and incubated for a further 2-3 hours. Finally, the OD600 value of the bacterial suspension was determined and the colony forming units per millilitre (cfu/mL) extrapolated. A full dilution of the bacterial cell suspension in saline was achieved by washing (3220×g for 10 min) and the OD600 in saline determined. The suspension was then diluted out accordingly in order to achieve a 2×10^6 cfu/mL solution (10^5 cfu in 50 μL/thigh).
Thus, 10 μL of the injectable MRSA suspension was diluted down to 10-1000 fold, each dilution plated out onto agar plates and incubated at 37° C. for 24 hours.
Thigh homogenates and CFU determination: Thighs were homogenized at 20,000 rpm for 15 seconds using a Polytron MR2500E using a […] probe (all Kinematica).

Molecules are shown by their SMILES.

Regarding `CCCCCCCCCCCCCC(=O)N[C@@H](CCCCN)C(=O)N[C@@H](CCCCN)C(=O)NCC(=O)NCCNC(=O)[C@H]1NC(=O)[C@H]2NC(=O)[C@H](NC(=O)[C@@H]3NC(=O)[C@H](CC(N)=O)NC(=O)[C@H](NC(=O)[C@@H](CC(C)C)NC)[C@H](O)c4ccc(c(Cl)c4)Oc4cc3cc(c4O[C@@H]3O[C@H](CO)[C@@H](O)[C@H](O)[C@H]3O[C@H]3C[C@](C)(N)[C@H](O)[C@H](C)O3)Oc3ccc(cc3Cl)[C@H]2O)c2ccc(O)c(c2)-c2c(O)cc(O)cc21` [MCC_000226, nC13CO-KKG-NHC2NH-Vanc], the “% compound remaining after incubation in 50% human plasma” value (“% compound remaining after incubation” for short) in series [1] (0 h (reference time point)) is given as 100%; in series [1] (1 h) it was 98%; in series [1] (3 h) it was 137%; in series [1] (6 h) it was 85%; in series [1] (24 h), 87%. Moreover, in series [2], the “Minimum Inhibitory Concentration (MIC) Staph. aureus ATCC43300” value is “xxxxx (xxxxx = <0.01)”. Besides, in series [3], the “Minimum Inhibitory Concentration (MIC) S. pneumoniae ATCC 700677” value was “xxxxx (xxxxx = <0.01)”. The “Minimum Inhibitory Concentration (MIC) E. faecium ATCC51559” value in series [4] is “xxx (xxx = 0.1-<1)”.

As to `CNC(CC(C)C)C(=O)NC1C(=O)NC(CC(N)=O)C(=O)NC2C(=O)NC3C(=O)NC(C(=O)NC(C(=O)NCCCCC(NC(=O)C(CCCCN)NC(=O)C(CCCCN)NC(=O)C(CCCCNC(=O)c4ccc(Oc5ccccc5)cc4)NC(=O)c4ccc(Oc5ccccc5)cc4)C(=O)O)c4cc(O)cc(O)c4-c4cc3ccc4O)C(O)c3ccc(c(Cl)c3)Oc3cc2cc(c3OC2OC(CO)C(O)C(O)C2OC2CC(C)(N)C(O)C(C)O2)Oc2ccc(cc2Cl)C1O` (stereo not drawn) [MCC_000217, (4-PhO-PhCO)-K(4-PhO-PhCO)-KK-K(Vanc)-OH], the “% compound remaining after incubation” value in series [1] (0 h (reference time point)) turned out to be 100%; in series [1] (1 h), 107%; in series [1] (6 h), 103%; in series [1] (24 h) it was 99%. Besides, the “Minimum Inhibitory Concentration (MIC) Staph. aureus ATCC43300” value in series [2] is “xxxxx (xxxxx = <0.01)”. Besides, the “Minimum Inhibitory Concentration (MIC) S. pneumoniae ATCC 700677” value in series [3] is “xxxxx (xxxxx = <0.01)”. Besides, in series [4], the “Minimum Inhibitory Concentration (MIC) E. faecium ATCC51559” value is “xx (xx = 1-4)”.

With `CCCCCCCCCC(=O)N[C@@H](CCCNC(=N)N)C(=O)N[C@@H](CCCCNC(=O)[C@H]1NC(=O)[C@H]2NC(=O)[C@H](NC(=O)[C@@H]3NC(=O)[C@H](CC(N)=O)NC(=O)[C@H](NC(=O)[C@@H](CC(C)C)NC)[C@H](O)c4ccc(c(Cl)c4)Oc4cc3cc(c4O[C@@H]3O[C@H](CO)[C@@H](O)[C@H](O)[C@H]3O[C@H]3C[C@](C)(N)[C@H](O)[C@H](C)O3)Oc3ccc(cc3Cl)[C@H]2O)c2ccc(O)c(c2)-c2c(O)cc(O)cc21)C(=O)O` [MCC_005530], the “Average Reduction log Δcfu MRSA/thigh after 26 h” value in series [5] is given as “xxx (xxx = 4-6)”.

For the compound `CCCCCCCCCCC(=O)N[C@@H](CCCCN)C(=O)N[C@@H](CCCCN)C(=O)N[C@@H](CCCCN)C(=O)N[C@@H](CCCCNC(=O)[C@H]1NC(=O)[C@H]2NC(=O)[C@H](NC(=O)[C@@H]3NC(=O)[C@H](CC(N)=O)NC(=O)[C@H](NC(=O)[C@@H](CC(C)C)NC)[C@H](O)c4ccc(c(Cl)c4)Oc4cc3cc(c4O[C@@H]3O[C@H](CO)[C@@H](O)[C@H](O)[C@H]3O[C@H]3C[C@](C)(N)[C@H](O)[C@H](C)O3)Oc3ccc(cc3Cl)[C@H]2O)c2ccc(O)c(c2)-c2c(O)cc(O)cc21)C(=O)O` [MCC_000229, nC10CO-KKK-K(Vanc)-OH], the “% compound remaining after incubation” value in series [1] (0 h (reference time point)) turned out to be 100%; in series [1] (1 h) it was 87%; in series [1] (3 h), 87%; in series [1] (6 h), 83%; in series [1] (24 h) it was 93%. In series [2], the “Minimum Inhibitory Concentration (MIC) Staph. aureus ATCC43300” value was “xxxx (xxxx = 0.01-<0.1)”. Moreover, the “Minimum Inhibitory Concentration (MIC) S. pneumoniae ATCC 700677” value in series [3] was “xxx (xxx = 0.1-<1)”. For the same compound, the “Minimum Inhibitory Concentration (MIC) E. faecium ATCC51559” value in series [4] is “xxxx (xxxx = 0.01-<0.1)”.

Take `CCCCCCCCC(=O)NC(CCCNC(=N)N)C(=O)NCCCNC(=O)C1NC(=O)C2NC(=O)C(NC(=O)C3NC(=O)C(CC(N)=O)NC(=O)C(NC(=O)C(CC(C)C)NC)C(O)c4ccc(c(Cl)c4)Oc4cc3cc(c4OC3OC(CO)C(O)C(O)C3OC3CC(C)(N)C(O)C(C)O3)Oc3ccc(cc3Cl)C2O)c2ccc(O)c(c2)-c2c(O)cc(O)cc21` (stereo not drawn) [MCC_007336]: the “Average Reduction log Δcfu MRSA/thigh after 26 h” value in series [5] was “xxxx (xxxx = >6)”.

`CCCCCCCCCCCCCC(=O)N[C@H](CCCCN)C(=O)N[C@H](CCCCN)C(=O)NCC(=O)NCCNC(=O)[C@H]1NC(=O)[C@H]2NC(=O)[C@H](NC(=O)[C@@H]3NC(=O)[C@H](CC(N)=O)NC(=O)[C@H](NC(=O)[C@@H](CC(C)C)NC)[C@H](O)c4ccc(c(Cl)c4)Oc4cc3cc(c4O[C@@H]3O[C@H](CO)[C@@H](O)[C@H](O)[C@H]3O[C@H]3C[C@](C)(N)[C@H](O)[C@H](C)O3)Oc3ccc(cc3Cl)[C@H]2O)c2ccc(O)c(c2)-c2c(O)cc(O)cc21` [MCC_000227, nC13CO-kkG-NHC2NH-Vanc]: the “% compound remaining after incubation” value in series [1] (0 h (reference time point)) came to 100%; in series [1] (1 h) it was 102%; in series [1] (3 h) it was 102%; in series [1] (6 h), 93%; in series [1] (24 h) it was 94%. Moreover, in series [2], the “Minimum Inhibitory Concentration (MIC) Staph. aureus ATCC43300” value is listed as “xxxxx (xxxxx = <0.01)”. Besides, the “Minimum Inhibitory Concentration (MIC) S. pneumoniae ATCC 700677” value in series [3] is recorded as “xxxxx (xxxxx = <0.01)”. For the same compound, the “Minimum Inhibitory Concentration (MIC) E. faecium ATCC51559” value in series [4] is on record as “xx (xx = 1-4)”.
